Converted amounts (≈) assume the structure as drawn.
Tests used:
Pseudomonas aeruginosa [1] = assay: Antibacterial activity against Pseudomonas aeruginosa ATCC 27853 assessed as effect on planktonic growth at 0.34 ug/ml after 20 hrs relative to control; type: functional
Streptococcus mutans [2] = assay: Antibacterial activity against Streptococcus mutans ATCC 25175 assessed as effect on planktonic growth at 0.68 ug/ml after 20 hrs relative to control; type: functional
[3] = test system: Staphylococcus epidermidis; assay: Antibacterial activity against Staphylococcus epidermidis ATCC 35547 assessed as effect on planktonic growth at 0.34 ug/ml after 20 hrs relative to control; type: functional
[4] = test system: Staphylococcus epidermidis; assay: Antibacterial activity against Staphylococcus epidermidis ATCC 35547 assessed as effect on planktonic growth at 87.5 ug/ml after 20 hrs relative to control; type: functional
Pseudomonas aeruginosa [5] = assay: Antibacterial activity against Pseudomonas aeruginosa ATCC 27853 assessed as effect on planktonic growth at 0.17 ug/ml after 20 hrs relative to control; type: functional
Pseudomonas aeruginosa [6] = assay: Antibacterial activity against Pseudomonas aeruginosa ATCC 27853 assessed as effect on planktonic growth at 10.9 ug/ml after 20 hrs relative to control; type: functional
Pseudomonas aeruginosa [7] = assay: Antibacterial activity against Pseudomonas aeruginosa ATCC 27853 assessed as effect on planktonic growth at 0.68 ug/ml after 20 hrs relative to control; type: functional
[8] = test system: Staphylococcus epidermidis; assay: Antibacterial activity against Staphylococcus epidermidis ATCC 35547 assessed as effect on planktonic growth at 0.68 ug/ml after 20 hrs relative to control; type: functional
Streptococcus mutans [9] = assay: Antibacterial activity against Streptococcus mutans ATCC 25175 assessed as effect on planktonic growth at 0.17 ug/ml after 20 hrs relative to control; type: functional
[10] = test system: Staphylococcus epidermidis; assay: Antibacterial activity against Staphylococcus epidermidis ATCC 35547 assessed as effect on planktonic growth at 43.8 ug/ml after 20 hrs relative to control; type: functional
[11] = test system: Staphylococcus epidermidis; assay: Antibacterial activity against Staphylococcus epidermidis ATCC 35547 assessed as effect on planktonic growth at 2.73 ug/ml after 20 hrs relative to control; type: functional
Streptococcus mutans [12] = assay: Antibacterial activity against Streptococcus mutans ATCC 25175 assessed as effect on planktonic growth at 10.9 ug/ml after 20 hrs relative to control; type: functional
[13] = test system: Staphylococcus epidermidis; assay: Antibacterial activity against Staphylococcus epidermidis ATCC 35547 assessed as effect on planktonic growth at 0.17 ug/ml after 20 hrs relative to control; type: functional
Staphylococcus aureus [14] = assay: Antibacterial activity against Staphylococcus aureus ATCC 25923 assessed as effect on planktonic growth at 1.37 ug/ml after 20 hrs relative to control; type: functional
[15] = test system: Staphylococcus epidermidis; assay: Antibacterial activity against Staphylococcus epidermidis ATCC 35547 assessed as effect on planktonic growth at 5.5 ug/ml after 20 hrs relative to control; type: functional
Streptococcus mutans [16] = assay: Antibacterial activity against Streptococcus mutans ATCC 25175 assessed as effect on planktonic growth at 87.5 ug/ml after 20 hrs relative to control; type: functional
Streptococcus mutans [17] = assay: Antibacterial activity against Streptococcus mutans ATCC 25175 assessed as effect on planktonic growth at 2.73 ug/ml after 20 hrs relative to control; type: functional
Staphylococcus aureus [18] = assay: Antibacterial activity against Staphylococcus aureus ATCC 25923 assessed as effect on planktonic growth at 0.34 ug/ml after 20 hrs relative to control; type: functional
Pseudomonas aeruginosa [19] = assay: Antibacterial activity against Pseudomonas aeruginosa ATCC 27853 assessed as effect on planktonic growth at 43.8 ug/ml after 20 hrs relative to control; type: functional
Staphylococcus aureus [20] = assay: Antibacterial activity against Staphylococcus aureus ATCC 25923 assessed as effect on planktonic growth at 2.73 ug/ml after 20 hrs relative to control; type: functional
Streptococcus mutans [21] = assay: Antibacterial activity against Streptococcus mutans ATCC 25175 assessed as effect on planktonic growth at 43.8 ug/ml after 20 hrs relative to control; type: functional
[22] = test system: Staphylococcus epidermidis; assay: Antibacterial activity against Staphylococcus epidermidis ATCC 35547 assessed as effect on planktonic growth at 21.9 ug/ml after 20 hrs relative to control; type: functional
Staphylococcus aureus [23] = assay: Induction of biofilm formation in Staphylococcus aureus ATCC 25923 at 44 ug/ml after 20 hrs by crystal-violet staining method relative to control; type: organism-based
[24] = test system: Staphylococcus epidermidis; assay: Antibacterial activity against Staphylococcus epidermidis ATCC 35547 assessed as effect on planktonic growth at 1.37 ug/ml after 20 hrs relative to control; type: functional
Pseudomonas aeruginosa [25] = assay: Antibacterial activity against Pseudomonas aeruginosa ATCC 27853 assessed as effect on planktonic growth at 87.5 ug/ml after 20 hrs relative to control; type: functional
Staphylococcus aureus [26] = assay: Antibacterial activity against Staphylococcus aureus ATCC 25923 assessed as effect on planktonic growth at 87.5 ug/ml after 20 hrs relative to control; type: functional
Streptococcus mutans [27] = assay: Antibacterial activity against Streptococcus mutans ATCC 25175 assessed as effect on planktonic growth at 0.34 ug/ml after 20 hrs relative to control; type: functional
Staphylococcus aureus [28] = assay: Antibacterial activity against Staphylococcus aureus ATCC 25923 assessed as effect on planktonic growth at 21.9 ug/ml after 20 hrs relative to control; type: functional
[29] = test system: Staphylococcus epidermidis; assay: Antibacterial activity against Staphylococcus epidermidis ATCC 35547 assessed as effect on planktonic growth at 10.9 ug/ml after 20 hrs relative to control; type: functional
Streptococcus mutans [30] = assay: Antibacterial activity against Streptococcus mutans ATCC 25175 assessed as effect on planktonic growth at 1.37 ug/ml after 20 hrs relative to control; type: functional
Pseudomonas aeruginosa [31] = assay: Antibacterial activity against Pseudomonas aeruginosa ATCC 27853 assessed as effect on planktonic growth at 21.9 ug/ml after 20 hrs relative to control; type: functional
Pseudomonas aeruginosa [32] = assay: Antibacterial activity against Pseudomonas aeruginosa ATCC 27853 assessed as inhibition of biofilm formation after 20 hrs by crystal-violet staining method; type: functional, organism-based
Staphylococcus aureus [33] = assay: Antibacterial activity against Staphylococcus aureus ATCC 25923 assessed as effect on planktonic growth at 43.8 ug/ml after 20 hrs relative to control; type: functional
[34] = test system: Staphylococcus epidermidis; assay: Antibacterial activity against Staphylococcus epidermidis ATCC 35547 assessed as inhibition of biofilm formation after 20 hrs by crystal-violet staining method; type: functional, organism-based
Staphylococcus aureus [35] = assay: Antibacterial activity against Staphylococcus aureus ATCC 25923 assessed as effect on planktonic growth at 10.9 ug/ml after 20 hrs relative to control; type: functional
Staphylococcus aureus [36] = assay: Antibacterial activity against Staphylococcus aureus ATCC 25923 assessed as effect on planktonic growth at 0.68 ug/ml after 20 hrs relative to control; type: functional
Pseudomonas aeruginosa [37] = assay: Antibacterial activity against Pseudomonas aeruginosa ATCC 27853 assessed as effect on planktonic growth at 1.37 ug/ml after 20 hrs relative to control; type: functional
Streptococcus mutans [38] = assay: Antibacterial activity against Streptococcus mutans ATCC 25175 assessed as effect on planktonic growth at 5.5 ug/ml after 20 hrs relative to control; type: functional
Streptococcus mutans [39] = assay: Antibacterial activity against Streptococcus mutans ATCC 25175 assessed as effect on planktonic growth at 21.9 ug/ml after 20 hrs relative to control; type: functional
Pseudomonas aeruginosa [40] = assay: Antibacterial activity against Pseudomonas aeruginosa ATCC 27853 assessed as effect on planktonic growth at 5.5 ug/ml after 20 hrs relative to control; type: functional
Staphylococcus aureus [41] = assay: Antibacterial activity against Staphylococcus aureus ATCC 25923 assessed as effect on planktonic growth at 0.17 ug/ml after 20 hrs relative to control; type: functional
Staphylococcus aureus [42] = assay: Antibacterial activity against Staphylococcus aureus ATCC 25923 assessed as effect on planktonic growth at 5.5 ug/ml after 20 hrs relative to control; type: functional
Pseudomonas aeruginosa [43] = assay: Antibacterial activity against Pseudomonas aeruginosa ATCC 27853 assessed as effect on planktonic growth at 2.73 ug/ml after 20 hrs relative to control; type: functional

COc1ccc(C)cc1C1=C(Br)C(=O)N(CC(C)C)/C1=C\c1ccccc1Cl was tested, and the Activity (Pseudomonas aeruginosa [1]) was -5.5%, the Activity (Streptococcus mutans [2]) was -2.1% and the Activity [3] was 17.8%. The Activity [4] was 65.8%, the Activity (Pseudomonas aeruginosa [5]) was -1.9% and the Activity (Pseudomonas aeruginosa [6]) was -13.8%. The Activity (Pseudomonas aeruginosa [7]) was -7.7%, the Activity [8] was 3.4% and the Activity (Streptococcus mutans [9]) was -4.6%. The Activity [10] was 46.4%, the Activity [11] was -5.5% and the Activity (Streptococcus mutans [12]) was 7.8%. It also gave an Activity [13] of 4%, an Activity (Staphylococcus aureus [14]) of -13.4% and an Activity [15] of 3.3%. It also gave an Activity (Streptococcus mutans [16]) of 49.5%, an Activity (Streptococcus mutans [17]) of 3.9% and an Activity (Staphylococcus aureus [18]) of -3.3%. It also gave an Activity (Pseudomonas aeruginosa [19]) of -11.1%, an Activity (Staphylococcus aureus [20]) of -6.6% and an Activity (Streptococcus mutans [21]) of 19.2%. The Activity [22] was 31.7%, the Activity (Staphylococcus aureus [23]) was 3.6% and the Activity [24] was -4.4%. For the same molecule, the Activity (Pseudomonas aeruginosa [25]) was 0.8%, the Activity (Staphylococcus aureus [26]) was 33.8% and the Activity (Streptococcus mutans [27]) was -1.4%. For the same molecule, the Activity (Staphylococcus aureus [28]) was -6.3%, the Activity [29] was 13.1% and the Activity (Streptococcus mutans [30]) was -0.4%. The Activity (Pseudomonas aeruginosa [31]) was -13.3%, the inhibition (Pseudomonas aeruginosa [32]) was “Dose-dependent effect” and the IC50 (Pseudomonas aeruginosa [32]; ATCC 27853, 20 h) was 5.7 µg/mL (≈ 12.4 µM). For the same molecule, the Activity (Staphylococcus aureus [33]) was 8.9%, the inhibition [34] was “Dose-dependent effect” and the IC50 ([34]; ATCC 35547, 20 h) was > 87.5 µg/mL. It also gave an Activity (Staphylococcus aureus [35]) of -13.4%, an Activity (Staphylococcus aureus [36]) of -4.9% and an Activity (Pseudomonas aeruginosa [37]) of -10.6%. The Activity (Streptococcus mutans [38]) was 8.9%, the Activity (Streptococcus mutans [39]) was 14.6% and the Activity (Pseudomonas aeruginosa [40]) was -13.8%. For the same molecule, the Activity (Staphylococcus aureus [41]) was -4.2%, the Activity (Staphylococcus aureus [42]) was -12% and the Activity (Pseudomonas aeruginosa [43]) was -6%.
